In patent EP0113998A2, “Composition and treatment for herpes simplex viral infections” (priority 1982, dated 1984):
Marks after values point to notes of the source that are not given here.

Tested on: herpes simplex infections
Type: in vivo, Human
Conditions: for Side Effects: human, in vivo; for Number Days To > 90% Improvement: topical, 1% in aqueous 30% ethanol and 5% neopurcellin, genital and oral herpes patients, placebo 6.250
Description: A clinical study was performed in a. classical double blind format with numbered vials containing either 1% sodium deoxycholic acid (DOC)in an aqueous solution of 30% ethanol and 5% neopurcellin (a mixture of inert medium chain fatty acids). The placebo was exactly the same, except that it lacked the sodium deoxycholic acid.

SMILES | Side Effects | Number Days To > 90% Improvement | Efficacy by site of infection (genital / oral herpes) (description in words, patients of Example 2) | reduction of significant signs of herpes simplex infections including erythema, edema, vesiculation, ulceration and pain (summary of findings of Example 2)
C[C@H](CCC(=O)O)[C@H]1CC[C@H]2[C@@H]3CC[C@@H]4C[C@H](O)CC[C@]4(C)[C@H]3C[C@H](O)[C@]12C [DOC, sodium deoxycholic acid] | 1* | 1.608 days | – | –
CC[N+](C)(CC)CCO[C@H]1CC[C@@]2(C)C(=CC[C@H]3[C@@H]4CC[C@H]([C@@H](C)O)[C@@]4(C)CC[C@@H]32)C1 [TX047, 3-beta-[2-(Diethylamino)ethoxy]-20-beta-hydroxypregn-5-ene methyl p-toluenesulphonate] | 2* | 1.774 days | approx. 60% genital, 40% oral herpes. Efficacy was greatest in the treatment of oral infec-tions and less but clearly active, and use-ful for genital herpes. | markedly reduce the significant signs of herpes simplex infections
